From patent US20210108199A1, “Treatment for aggressive cancers by targeting C9ORF72” (The Trustees of Columbia University in the City of New York, priority 2017, published 2021)

Tests used:
Assay type in all cases: cell-based
U87 cells [1] = assay: Dextran measurement of macropinocytosis; conditions: fluorescein dextran
Method: U87 cells were treated with control and C9 siRNA for a total of 3 days. At day 2, cells were treated with a final concentration of 20 μM dextran and incubased overnight. On day 3, cells were washed with phenol red-free DMEM and then imaged using excitation/emission for fluorescein (494/521) on an LSM 700; Carl Zeiss™ microscope.
In this study, a fluid phase marker, fluorescein dextran, was added to the media. If the vacuoles are macropinosomes, the marker will be taken up and internalized, resulting in green fluorescent macropinocytosis.
The right images are a merge between the left and middle images. The scale bar represents 10 μm. White arrows indicate the position of vacuoles. In FIG. 8, the upper panels are fluorescent images (Alexa™ 488) of U87 cells treated with control (siCtrl) and C9 (siC9; SEQ ID NO:631) siRNA as indicated incubated in fluorescein dextran (green). The lower panels are the same cells imaged in phase contrast.

U87 cells [2] = assay: FACS cell cycle analysis; conditions: day three
Method: U87 cells were treated with control and C9 siRNA for 3 days. On day 3, cells were fixed in 70% ethanol at −20° C., re-suspended in phosphate-citrate buffer (192 mM Na2HPO4, 4 mM citric acid), and incubated for 30 minutes in PBS containing 10 μg/mL propidium iodide (PI) and 10 μg/mL RNase A. Data were collected on a FACSCalibur™ flow cytometer (Becton Dickinson™). Data analysis was performed using FlowJo™.
To validate the cell viability assays, C9 was knocked down in U87 cells and the cells were analyzed by FACS. […] The bar plots represent the cell cycle measurement (subG1-purple, G2-green, S-red, G1-blue) of three independent biological replicates upon control (siCtrl) or C9 (siC9; SEQ ID NO:631) siRNA. Error bars represent S.E.M.

U87 cells [3] = assay: Vacuole quantitation in phase contrast images after C9 KD; conditions: 3 days, vs siCtrl
Method: For siRNA knockdown experiments, siRNAs targeting C9 mRNA were designed with the Whitehead website (sirna.wi.mit.edu) and with RNAxs webserver (rna.tbi.univie.ac.at/cgi-bin/RNAxs). All siRNAs were obtained from GenePharma™. Lipofectamine RNAiMAX (Thermo Scientific™) was used as the transfection reagent for all siRNA experiments (according to the manufacturer's instructions). siRNA concentration was 40 nM per 60 mm plate. After 6 hours, media was changed and cells were treated again with siRNA after 48 hours. For RNA and protein analysis, cells were harvested after 48 hours following the second treatment. All KD experiments were performed in three biological replicates. The siRNA sequences were as follows: […] (SEQ ID NO:631; sense) and […] (SEQ ID NO:632; antisense); and GCACAUAUGGACUAUCAAUtt (SEQ ID NO:633; sense) and AUUGAUAGUCCAUAUGUGCtg (SEQ ID NO:634; antisense). The lower case letters in the sequence indicate location where optional modifications can be placed to enhance stability of the RNA.
The vacuoles were examined in order to reveal the mechanism by which C9 protein levels contribute to vacuole initiation. […] The number of vacuoles per cell were counted using imageJ™ from 3 biological replicates and a total of about 50 cells were quantitated, each dot representing a measurement of vacuoles per one cell FIG. 2A). […] Statistical significance was assessed by two tailed t-test. […]

p53 null U87 cells [4] = assay: qRT-PCR in p53 null U87 KO #4 cells
Method: For most RNA experiments, RNA was isolated from cells using the Qiagen™ RNeasy minikit. Complementary DNA was generated using the Qiagen™ Quantitect™ reverse transcription kit with 0.5 μg of input RNA as measured with a NanoDrop spectrophotometer (Thermo Scientific™). Real-time PCR was carried out on an ABI StepOne Plus™ machine using power SYBR Green dye (Thermo Scientific™). Transcript levels were assayed in triplicate and normalized to RPL32 and HPS90 mRNAs. Relative changes in cDNA levels were calculated using the comparative Ct method (ΔΔCT method). All RT-qPCR primers were designed with Primer3Plus™ or retrieved from Primerbank™. Primer sequences are listed here, including in Table 3. All primers were purchased from Life Technologies™. H. Generation of p53 Knock Out U87 Cell Lines by CRISPR
See FIG. 32, which presents RT-qPCR analysis of C9ORF72, CDKN1A (p21), PUMA, MDM2 and PARP1 mRNA levels in U87 KO #4 cells treated with control (siCtrl) and C9 (siC9; SEQ ID NO:631) siRNA. These experiments were performed in three biological replicates (n=3) and error bars represent S.E.M. Statistical significance was assessed by unpaired t-test: NS P>0.05, *P≤0.05, **P≤0.01, ***P≤0.001 ****P≤0.0001.

p53 null U87 cells [5] = assay: Mitochondrial imaging in p53 null U87 clones; conditions: p53 KO U87 clones KO #4 and KO #9
Text: C9 then was knocked down in two p53 KO U87 cells lines which were imaged to show whether mitochondrial disorganization depends on p53. […] FIG. 38 is a set of confocal microscopy images of two p53 null U87 clones (KO #4 and KO #9) treated with control and C9 siRNA, stained with Mitotracker red.

U87 cells [6] = assay: β-Galactosidase staining (senescence)
Method: β-Galactosidase staining was performed using a Senescence™ β-Galactosidase Staining Kit (Cell Signaling™, #9860) and used according to manufacturer's instructions.
To confirm that cells undergo non-apoptotic death, apoptosis was blocked with a broad caspase inhibitor Z-VAD-FMK upon C9 KD. […] Additionally, the apoptosis inducer, staurosporine (STS), was used to asses Z-VAD-FMK efficacy. […] A beta galactosidase staining technique was used to asses senescence upon C9 KD. […] See FIG. 20, for which U87 cells were treated with control (siCtrl) and C9 (siC9; SEQ ID NO:631) siRNA and then subjected to β-Galactosidase Staining.

siC9: siRNA targeting C9 mRNA: UUAAUGAAACAAUAAUCACUC (SEQ ID NO:631; sense) and GUGAUUAUUGUUUCAUUAAUC (SEQ ID NO:632; antisense) (listed as RNA, chemistry not given here)
dextran in vacuoles (U87 cells [1]): formation of vacuoles filled with dextran | decrease in G1 (U87 cells [2]): 4.7 fold | increase in S phase (U87 cells [2]): 3.3 fold | increase in SubG1 phase (U87 cells [2]): 3.1 fold | size of vacuoles (U87 cells [3]): significant increase | total vacuoles per cell (U87 cells [3]): significant increase | PUMA and MDM2 mRNA (p53 null U87 cells [4]; p53 null U87 KO #4 cells): lower levels | p21 mRNA (p53 null U87 cells [4]; p53 null U87 KO #4 cells): did not result in a significant change | PARP1 mRNA (p53 null U87 cells [4]; p53 null U87 cells): repression was also observed | mitochondrial organization (p53 null U87 cells [5]): caused mitochondrial disorganization | nucleus and cell size (U87 cells [6]): increase in both nucleus and cell size | β-galactosidase staining (senescence) (U87 cells [6]): did not stain with the assay
